One assay addresses T1, β-secretase (BACE-1) (Homo sapiens, UniProt P56817).
T1 construct: purchased Sigma–Aldrich
Briefly: biochemical. Conditions: for IC50: observed, read-out: BACE-1 Obs. pIC50 (converted).

For assay [1], the target named is T2, acetylcholinesterase (AChE) (Electrophorus electricus, UniProt O42275).
T2 construct: purchased Sigma–Aldrich (St. Louis, MO, USA)
Briefly: biochemical. Conditions: Ellman's method, pH 8, triplicate.
Description: AChE inhibitory activities of the synthesized flavone derivatives were determined by Ellman’s method [45]. […] The assay was performed as described earlier [46] in 96-well microtiter plates using the EMR-500 ELISA system (Labomed, Los Angeles, CA, USA). Each well of the plate contained a mixture of sodium phosphate buffer pH 8, sample (studied compounds or reference), acetylcholinesterase, ATCI, and 5,5′-dithio-bisnitrobenzoic acid (DTNB). The absorbance was recorded at 405 nm. All samples were assayed in triplicate.

Where [2] appears, read: fluorescence kit, 2 h incubation at 37 °C, read-out: BACE-1 IC50.

pIC50: −log10 of the molar value. Read-outs that look alike come from different tables or passages of the source.

T1 sequence (P56817 46-501): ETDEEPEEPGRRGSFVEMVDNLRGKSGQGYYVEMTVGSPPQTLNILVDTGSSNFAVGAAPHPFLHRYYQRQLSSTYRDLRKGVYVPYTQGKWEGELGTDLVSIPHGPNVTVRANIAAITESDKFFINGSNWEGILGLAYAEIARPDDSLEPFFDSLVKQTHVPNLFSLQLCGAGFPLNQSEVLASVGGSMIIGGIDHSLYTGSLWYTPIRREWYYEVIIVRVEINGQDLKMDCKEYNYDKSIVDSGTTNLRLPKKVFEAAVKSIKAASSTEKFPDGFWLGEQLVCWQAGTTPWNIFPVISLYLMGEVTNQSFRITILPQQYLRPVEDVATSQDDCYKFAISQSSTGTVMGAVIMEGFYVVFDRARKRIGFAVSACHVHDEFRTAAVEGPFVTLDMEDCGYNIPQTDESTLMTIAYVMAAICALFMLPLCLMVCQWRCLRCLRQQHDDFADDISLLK
T2 sequence (O42275 24-633): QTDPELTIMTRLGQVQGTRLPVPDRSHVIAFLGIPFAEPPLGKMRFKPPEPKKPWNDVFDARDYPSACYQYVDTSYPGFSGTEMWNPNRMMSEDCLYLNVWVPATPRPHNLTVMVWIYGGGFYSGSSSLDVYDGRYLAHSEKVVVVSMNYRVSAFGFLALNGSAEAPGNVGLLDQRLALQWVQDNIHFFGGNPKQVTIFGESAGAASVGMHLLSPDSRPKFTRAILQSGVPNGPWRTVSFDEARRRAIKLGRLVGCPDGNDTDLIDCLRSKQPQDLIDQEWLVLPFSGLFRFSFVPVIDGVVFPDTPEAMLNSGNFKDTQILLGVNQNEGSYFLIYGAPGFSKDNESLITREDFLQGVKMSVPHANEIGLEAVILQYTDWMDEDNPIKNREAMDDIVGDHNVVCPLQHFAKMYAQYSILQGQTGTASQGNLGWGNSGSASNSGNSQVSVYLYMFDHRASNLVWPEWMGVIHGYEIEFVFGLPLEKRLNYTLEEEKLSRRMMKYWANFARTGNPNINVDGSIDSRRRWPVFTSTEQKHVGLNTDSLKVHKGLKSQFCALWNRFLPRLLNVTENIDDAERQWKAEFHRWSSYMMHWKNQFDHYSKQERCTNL
Excerpt for β-secretase (BACE-1): A fluorescence β-Secretase (BACE-1) Activity Detection Kit was purchased from Sigma–Aldrich and used to determine the effect of the synthesized flavone derivatives on β-secretase activity. […] The enzyme solution was reacted with the substrate (7-methoxycumarin-4-acetyl-(Asn670, Lue671)-amyloid β/A4 precursor protein 770 fragment 667–676-(2,4-dinitrophenyl))Lys-Arg-Arg amide trifluoroacetate salt and sulfated polysaccharide samples in a fluorescence assay buffer in different wells. Baseline readings were measure immediately on an F-7000 fluorescence spectrophotometer (Hitachi, Tokyo, Japan; excitation: 320 nm; emission: 405 nm) and repeated after 2 h incubation at 37 °C.

As to `COc1cc(O)c2c(=O)cc(-c3ccc(OC)c(OC)c3)oc2c1` [Compound D2, 5-Hydroxy-3’,4’,7-trimethoxyflavone], the pIC50 at β-secretase (BACE-1) (setting [2]) is 5.67; in assay [1] it was 4.06. Further, the IC50 at β-secretase (BACE-1) (-logIC50) was 2.14 µM.

With `O=c1cc(-c2ccccc2)oc2cc(OCc3ccccc3)c(OCc3ccccc3)c(OCc3ccccc3)c12` [Compound B6, 5,6,7-Tribenzyloxyflavone], the results for the pIC50 (on β-secretase (BACE-1) (setting [2]); in assay [1]) were 4.90 and 4.10, respectively. Besides, on β-secretase (BACE-1) (-logIC50), the IC50 was 12.6 µM.

With `C=CCOc1cc(O)c2c(=O)cc(-c3ccc(OC)c(OCC=C)c3)oc2c1` [Compound D4, 3’,7-Diallyloxy-5-hydroxy-4’-methoxyflavone], the pIC50 on β-secretase (BACE-1) (setting [2]) was 5.44; in assay [1], 3.82. Besides, the IC50 at β-secretase (BACE-1) (-logIC50) was 3.63 µM.

As for `COc1cc(OC)c2c(=O)cc(-c3ccc(OC)c(OC)c3)oc2c1` [Compound D5, 3’,4’,5,7-Tetramethoxyflavone], the pIC50 was 5.78 on β-secretase (BACE-1) (BACE-1 IC50, fluorescence kit, 2 h incubation at 37 °C); 5.78 on β-secretase (BACE-1) (BACE-1 Obs. pIC50, observed, -logIC50); 4.13 in assay [1].

Turning to `CCOc1cc(OCC)c2c(=O)cc(-c3ccc(OC)c(OCC)c3)oc2c1` [Compound D6, 3′,5,7-Triethoxy-4′-methoxyflavone], the pIC50 at β-secretase (BACE-1) (setting [2]) is 5.80; in assay [1] it was 4.12. Also, the IC50 on β-secretase (BACE-1) (-logIC50) is 1.58 µM.

For the compound `C=CCOc1cc2oc(-c3ccccc3)cc(=O)c2c(OCC=C)c1OCC=C` [Compound B5, 5,6,7-Triallyloxyflavone], the pIC50 on β-secretase (BACE-1) (setting [2]) is 4.77; in assay [1], 3.72. In addition, the IC50 at β-secretase (BACE-1) (-logIC50) is 17 µM.

`CC(=O)Oc1cc2oc(-c3ccccc3)cc(=O)c2c(OC(C)=O)c1OC(C)=O` [Compound B7, 5,6,7-Triacetoxyflavone]: the pIC50 at β-secretase (BACE-1) (setting [2]) was 4.50; in assay [1] it was 4.29. Besides, at β-secretase (BACE-1) (-logIC50), the IC50 is 31.6 µM.

For the compound `CCOc1cc(O)c2c(=O)cc(-c3ccc(OC)c(OCC)c3)oc2c1` [Compound D3, 3’,7-Diethoxy-5-hydroxy-4’-methoxyflavone], the pIC50 at β-secretase (BACE-1) (setting [2]) is 5.50; in assay [1], 3.89. For the same compound, the IC50 on β-secretase (BACE-1) (-logIC50) is 3.16 µM.

On to `COc1cc2oc(-c3ccccc3)cc(=O)c2c(O)c1OC` [Compound B2, 5-Hydroxy-6,7-dimethoxyflavone], for which the pIC50 on β-secretase (BACE-1) (setting [2]) is 4.36; in assay [1] it was 4.59. Also, the IC50 at β-secretase (BACE-1) (-logIC50) is 43.7 µM.

In the case of `CCOc1cc2oc(-c3ccccc3)cc(=O)c2c(O)c1OCC` [Compound B3, 6,7-Diethoxy-5-hydroxyflavone], the figures for the pIC50 (on β-secretase (BACE-1) (setting [2]); in assay [1]) were 5.40 and 4.52, respectively. Besides, the IC50 at β-secretase (BACE-1) (-logIC50) is 3.98 µM.

Consider `CCC(=O)Oc1cc2oc(-c3ccccc3)cc(=O)c2c(OC(=O)CC)c1OC(=O)CC` [Compound B8, 5,6,7-Tripropionoxyflavone], for which the pIC50 is 4.65 at β-secretase (BACE-1) (setting [2]) and 4.18 in assay [1]. Also, on β-secretase (BACE-1) (-logIC50), the IC50 is 22.4 µM.

Turning to `COc1ccc(-c2cc(=O)c3c(O)cc(OC(=O)c4ccccc4)cc3o2)cc1OC(=O)c1ccccc1` [Compound D7, 3’,7-Dibenzoyloxy-5-hydroxy-4’-methoxyflavone], the pIC50 at β-secretase (BACE-1) (setting [2]) is 5.54; in assay [1], 3.47. Further, the IC50 on β-secretase (BACE-1) (-logIC50) was 2.88 µM.

With `C=CCOc1cc2oc(-c3ccccc3)cc(=O)c2c(O)c1OCC=C` [Compound B4, 6,7-Diallyloxy-5-hydroxyflavone], the pIC50 at β-secretase (BACE-1) (setting [2]) is 4.15; in assay [1], 4.29. Besides, the IC50 on β-secretase (BACE-1) (-logIC50) is 70.8 µM.

In the case of `O=c1cc(-c2ccccc2)oc2cc(O)c(O)c(O)c12` [Compound B1, Baicalein], the pIC50 in assay [1] was 4.43.

Values taken from PMC7570966 (Molecules, 2020).
